Assay results published in patent publication US20240166652A1, “MODULATORS OF THE INTEGRATED STRESS PATHWAY” (Calico Life Sciences LLC, priority 2017, published 2024).

What follows are compounds tested on ATF4 luciferase reporter in HEK293T cells (assay: ATF4-Luc assay (ATF4 luciferase reporter, tunicamycin-treated HEK293T cells)). Settings: Homo sapiens, HEK-293T; HEK293T cells carrying the ATF4 luciferase reporter, 1 μg/mL tunicamycin, 7 hours.
Assay type: cell-based, human
`CN1C(=O)COc2c(OCC(=O)NC34CCC(NC(=O)COc5ccc(Cl)c(F)c5)(CC3)[C@@H](O)C4)cc(Cl)cc21` [Compound 752, 2-(4-chloro-3-fluorophenoxy)-N-[(2S)-4-{2-[(6-chloro-4-methyl-3-oxo-3,4-dihydro-2H-1,4-benzoxazin-8-yl)oxy]acetamido}-2-hydroxybicyclo[2.2.2]octan-1-yl]acetamide] gave an EC50 of 500 to 2000 nM. Work on `O=C(COc1ccc(Cl)c(F)c1)NC12CC(NC(=O)COc3cnc(Cl)c(F)c3)(C1)C2` [Compound 227, 2-(4-chloro-3-fluorophenoxy)-N-(3-{2-[(6-chloro-5-fluoropyridin-3-yl)oxy]acetamido}bicyclo[1.1.1]pentan-1-yl)acetamide] yielded an EC50 of less than 10 nM. `O=C(COc1ccc(C(F)(F)F)c(F)c1)NC12CCC(NC(=O)COc3ccc(Cl)cc3)(CC1)[C@@H](O)C2` [Compound 843, 2-(4-chlorophenoxy)-N-[(2S)-4-{2-[3-fluoro-4-(trifluoromethyl)phenoxy]acetamido}-2-hydroxybicyclo[2.2.2]octan-1-yl]acetamide] was tested, and the EC50 was less than 10 nM. For `COc1cc(OCC(=O)NC23CC(NC(=O)COc4ccc(Cl)c(F)c4)(C2)C3)cnc1F` [Compound 246, 2-(4-chloro-3-fluorophenoxy)-N-(3-{2-[(6-fluoro-5-methoxypyridin-3-yl)oxy]acetamido}bicyclo[1.1.1]pentan-1-yl)acetamide], the EC50 was 10 to 50 nM. `Cc1ccc(OCC(=O)NC23CCC(NC(=O)COc4ccc(Cl)cc4)(CC2)[C@@H](O)C3)cc1` [Compound 787, 2-(4-chlorophenoxy)-N-{(2S)-2-hydroxy-4-[2-(4-methylphenoxy)acetamido]bicyclo[2.2.2]octan-1-yl}acetamide] gave an EC50 of less than 10 nM. Work on `COCCN1C(=O)C2(NC(=O)COc3ccc(Cl)c(F)c3)CCC1(NC(=O)COc1ccc(Cl)c(F)c1)CC2` [Compound 676, N,N′-[2-(2-methoxyethyl)-3-oxo-2-azabicyclo[2.2.2]octane-1,4-diyl]bis[2-(4-chloro-3-fluorophenoxy)acetamide]] yielded an EC50 of 250 to 500 nM. With `O=C(COc1ccc2c(c1)OC(F)(F)O2)NC12CCC(NC(=O)COc3ccc4c(c3)OC(F)(F)O4)(C1)C2` [Compound 391, N,N′-(bicyclo[2.1.1]hexane-1,4-diyl)bis{2-[(2,2-difluoro-2H-1,3-benzodioxol-5-yl)oxy]acetamide}] the EC50 was 250 to 500 nM. Work on `O=C(COc1ccc(Cl)c(F)c1)NC12CCC(NC(=O)COc3ccc4c(c3)OC(F)(F)O4)(CC1)C(O)C2` (stereo not shown) [Compound 305, 2-(4-chloro-3-fluorophenoxy)-N-(4-{2-[(2,2-difluoro-2H-1,3-benzodioxol-5-yl)oxy]acetamido}-3-hydroxybicyclo[2.2.2]octan-1-yl)acetamide] yielded an EC50 of less than 10 nM. `O=C(COc1ccc(Cl)c(F)c1)NC12CCC(NC(=O)COc3cccc(F)c3)(CC1)[C@@H](O)C2` [Compound 659, 2-(4-chloro-3-fluorophenoxy)-N-{(3S)-4-[2-(3-fluorophenoxy)acetamido]-3-hydroxybicyclo[2.2.2]octan-1-yl}acetamide] gave an EC50 of less than 10 nM. With `COc1ccc(/C=C/C(=O)NC23CC(NC(=O)COc4ccc(Cl)c(F)c4)(C2)C3)cc1` [Compound 347, (2E)-N-{3-[2-(4-chloro-3-fluorophenoxy)acetamido]bicyclo[1.1.1]pentan-1-yl}-3-(4-methoxyphenyl)prop-2-enamide] the EC50 was 250 to 500 nM. With `O=C(COc1ccc(Cl)c(F)c1)NC12CCC(NC(=O)COc3ccc(Cl)c(F)c3)(CC1)[C@H](O)C2` (single isomer, unassigned) [Compound 298] the EC50 was less than 10 nM. Compound `O=C(COc1ccc(Cl)c(F)c1)NC12CCC(NC(=O)COc3ccc(Cl)c(F)c3)(CC1)[C@@H](c1nn[nH]n1)C2` [Compound 419, N,N′-[(2S)-2-(2H-tetrazol-5-yl)bicyclo[2.2.2]octane-1,4-diyl]bis[2-(4-chloro-3-fluorophenoxy)acetamide]] has an EC50 of 50 to 250 nM. Work on `O=C(COc1ccc(Cl)c(F)c1)NC12CCC(NC(=O)COc3ccc(F)c(Cl)c3)(CC1)[C@@H](O)C2` [Compound 596, 2-(4-chloro-3-fluorophenoxy)-N-{(3S)-4-[2-(3-chloro-4-fluorophenoxy)acetamido]-3-hydroxybicyclo[2.2.2]octan-1-yl}acetamide] yielded an EC50 of less than 10 nM. `N#Cc1ccc(CNC23CCC(NC(=O)COc4ccc(Cl)c(F)c4)(CC2)CC3O)cc1` (stereo not shown) [Compound 343, 2-(4-chloro-3-fluorophenoxy)-N-(4-{[(4-cyanophenyl)methyl]amino}-3-hydroxybicyclo[2.2.2]octan-1-yl)acetamide] showed an EC50 of 50 to 250 nM. In the case of `O=C(COCc1ccc(C(F)(F)F)nc1)NC12CC(NC(=O)COc3ccc(Cl)c(F)c3)(C1)C2` [Compound 284, 2-(4-chloro-3-fluorophenoxy)-N-[3-(2-{[6-(trifluoromethyl)pyridin-3-yl]methoxy}acetamido)bicyclo[1.1.1]pentan-1-yl]acetamide], the EC50 is reported as 10 to 50 nM. Work on `O=C(COc1ccc(Cl)c(Cl)c1)NC12CC(NC(=O)COc3cnc(C(F)(F)F)cn3)(C1)C2` [Compound 105, 2-(3,4-dichlorophenoxy)-N-[3-(2-{[5-(trifluoromethyl)pyrazin-2-yl]oxy}acetamido)bicyclo[1.1.1]pentan-1-yl]acetamide] yielded an EC50 of 10 to 50 nM. `O=C(COc1ccc(Cl)c(F)c1)NC12CCC(NC(=O)COc3ccnn(CC(F)(F)F)c3=O)(CC1)C(O)C2` (stereo not shown) [Compound 333, 2-(4-chloro-3-fluorophenoxy)-N-[3-hydroxy-4-(2-{[3-oxo-2-(2,2,2-trifluoroethyl)-2,3-dihydropyridazin-4-yl]oxy}acetamido)bicyclo[2.2.2]octan-1-yl]acetamide] showed an EC50 of 250 to 500 nM. In the case of `O=C(COc1ccc2c(c1)OC(F)(F)C(F)(F)O2)NC12CCC(NC(=O)COc3ccc(Cl)c(F)c3)(CC1)[C@@H](O)C2` [Compound 702, 2-(4-chloro-3-fluorophenoxy)-N-[(2S)-2-hydroxy-4-{2-[(2,2,3,3-tetrafluoro-2,3-dihydro-1,4-benzodioxin-6-yl)oxy]acetamido}bicyclo[2.2.2]octan-1-yl]acetamide], the EC50 is reported as less than 10 nM. With `O=C(COc1ccc(Cl)c(F)c1)NC12CCC(NC(=O)COc3ccc(OC(F)F)c(F)c3)(CC1)[C@@H](O)C2` [Compound 802, 2-(4-chloro-3-fluorophenoxy)-N-[(3S)-4-{2-[4-(difluoromethoxy)-3-fluorophenoxy]acetamido}-3-hydroxybicyclo[2.2.2]octan-1-yl]acetamide] the EC50 was less than 10 nM. `CN(C(=O)COc1ccc(Cl)c(F)c1)C12CCC(NC(=O)COc3ccc(Cl)c(F)c3)(CC1)[C@@H](O)C2` [Compound 444, 2-(4-chloro-3-fluorophenoxy)-N-{(3S)-4-[2-(4-chloro-3-fluorophenoxy)acetamido]-3-hydroxybicyclo[2.2.2]octan-1-yl}-N-methylacetamide] gave an EC50 of 10 to 50 nM. Compound `COc1ncc(OCC(=O)NC23CCC(NC(=O)COc4ccc(F)c(F)c4)(CC2)[C@@H](O)C3)cn1` [Compound 634, 2-(3,4-difluorophenoxy)-N-[(2S)-2-hydroxy-4-{2-[(2-methoxypyrimidin-5-yl)oxy]acetamido}bicyclo[2.2.2]octan-1-yl]acetamide] has an EC50 of 50 to 250 nM. `O=C(COc1cncc(C(F)(F)F)c1)NC12CC(NC(=O)COc3ccc(Cl)c(F)c3)(C1)C2` [Compound 230, 2-(4-chloro-3-fluorophenoxy)-N-[3-(2-{[5-(trifluoromethyl)pyridin-3-yl]oxy}acetamido)bicyclo[1.1.1]pentan-1-yl]acetamide] was tested, and the EC50 was 10 to 50 nM. Work on `COc1ccc(OC)c(CCC(=O)NC23CC(NC(=O)COc4ccc(Cl)c(F)c4)(C2)C3)c1` [Compound 455, N-{3-[2-(4-chloro-3-fluorophenoxy)acetamido]bicyclo[1.1.1]pentan-1-yl}-3-(2,5-dimethoxyphenyl)propanamide] yielded an EC50 greater than 2000 nM. `O=C(COc1ccc(Cl)c(F)c1)NC12CCC(NCCOc3ccc(Cl)c(Cl)c3)(CC1)C(O)C2` (stereo not shown) [Compound 335, 2-(4-chloro-3-fluorophenoxy)-N-(4-{[2-(3,4-dichlorophenoxy)ethyl]amino}-3-hydroxybicyclo[2.2.2]octan-1-yl)acetamide] showed an EC50 of less than 10 nM. Work on `COc1ccc(OCC(=O)NC23CC(NC(=O)COc4ccc5c(c4)OC(F)(F)O5)(C2)C3)cn1` [Compound 271, 2-[(2,2-difluoro-2H-1,3-benzodioxol-5-yl)oxy]-N-(3-{2-[(6-methoxypyridin-3-yl)oxy]acetamido}bicyclo[1.1.1]pentan-1-yl)acetamide] yielded an EC50 of 10 to 50 nM. `O=C(COc1ccc(OC(F)(F)F)c(F)c1)NC12CCC(NC(=O)COc3ccc4c(c3)OC(F)(F)O4)(CC1)[C@@H](O)C2` [Compound 760, 2-[(2,2-difluoro-2H-1,3-benzodioxol-5-yl)oxy]-N-[(2S)-4-{2-[3-fluoro-4-(trifluoromethoxy)phenoxy]acetamido}-2-hydroxybicyclo[2.2.2]octan-1-yl]acetamide] gave an EC50 of less than 10 nM. `Nc1ncc(OCC(=O)NC23CC(NC(=O)COc4ccc(Cl)c(F)c4)(C2)C3)cc1Cl` [Compound 250, 2-[(6-amino-5-chloropyridin-3-yl)oxy]-N-{3-[2-(4-chloro-3-fluorophenoxy)acetamido]bicyclo[1.1.1]pentan-1-yl}acetamide] gave an EC50 of 50 to 250 nM. `CC1(O)CC2(NC(=O)COc3ccc(Cl)c(F)c3)CCC1(NC(=O)COc1ccc(Cl)c(F)c1)CC2` (stereo not shown) [Compound 339, N,N′-(2-hydroxy-2-methylbicyclo[2.2.2]octane-1,4-diyl)bis[2-(4-chloro-3-fluorophenoxy)acetamide]] gave an EC50 of less than 10 nM. `Cc1cccc(COCC(=O)NC23CC(NC(=O)COc4ccc(Cl)c(Cl)c4)(C2)C3)n1` [Compound 153, 2-(3,4-dichlorophenoxy)-N-(3-{2-[(6-methylpyridin-2-yl)methoxy]acetamido}bicyclo[1.1.1]pentan-1-yl)acetamide] showed an EC50 of 50 to 250 nM. `O=C(COc1ccc(OC(F)(F)F)cc1)NC12CCC(NC(=O)COc3ccc(Cl)cc3)(CC1)[C@@H](O)C2` [Compound 783, 2-(4-chlorophenoxy)-N-[(2S)-2-hydroxy-4-{2-[4-(trifluoromethoxy)phenoxy]acetamido}bicyclo[2.2.2]octan-1-yl]acetamide] was tested, and the EC50 was less than 10 nM. Compound `O=C(COc1ccc(Cl)c(F)c1)NC12CCC(NCc3nc4cc(F)ccc4[nH]3)(CC1)C[C@@H]2O` [Compound 647, 2-(4-chloro-3-fluorophenoxy)-N-[(2S)-4-{[(5-fluoro-1H-benzimidazol-2-yl)methyl]amino}-2-hydroxybicyclo[2.2.2]octan-1-yl]acetamide] has an EC50 of 50 to 250 nM.
